The structures appear in SMILES notation. Activity calls are given as the source filed them. The rule behind the calls is not given here.

In the data set the test system is CCRIS mutagenicity, Ames/micronucleus/aberration tests. Kind of data set: CCRIS mutagenicity studies.
Where [1] appears, read: Test System: MOUSE LYMPHOMA, Strain/Indicator: L5178Y (TK+/TK-), Metabolic Activation: NONE, Method: SUSPENSION/PLATE.
[2] abbreviates: Test System: AMES SALMONELLA TYPHIMURIUM, Strain/Indicator: TA98, Metabolic Activation: NONE, Method: STANDARD PLATE.
Setting [3] is: Test System: AMES SALMONELLA TYPHIMURIUM, Strain/Indicator: TA98, Metabolic Activation: RAT, LIVER, S-9, AROCLOR 1254, Method: STANDARD PLATE.
The mark [4] stands for this setting: Test System: AMES SALMONELLA TYPHIMURIUM, Strain/Indicator: TA100, Metabolic Activation: NONE, Method: STANDARD PLATE.
Where [5] appears, read: Test System: AMES SALMONELLA TYPHIMURIUM, Strain/Indicator: TA100, Metabolic Activation: RAT, LIVER, S-9, AROCLOR 1254, Method: STANDARD PLATE.

`Cc1[nH]c(=O)c(C#N)cc1-c1ccncc1`: the mutagenic call by setting is: (Test System: AMES SALMONELLA TYPHIMURIUM, Strain/Indicator: TA97, Metabolic Activation: NONE) “inactive; negative”; (Test System: AMES SALMONELLA TYPHIMURIUM, Strain/Indicator: TA97, Metabolic Activation: S-9) “inactive; negative”; (Test System: AMES SALMONELLA TYPHIMURIUM, Strain/Indicator: TA98, Metabolic Activation: NONE) “inactive; negative”; (Test System: AMES SALMONELLA TYPHIMURIUM, Strain/Indicator: TA98, Metabolic Activation: NONE, Method: PREINCUBATION) “inactive; negative”; (Test System: AMES SALMONELLA TYPHIMURIUM, Strain/Indicator: TA98, Metabolic Activation: RAT, LIVER, S-9, PHENOBARBITAL AND 5,6-BENZOFLAVONE, Method: PREINCUBATION) “inactive; negative”; (Test System: AMES SALMONELLA TYPHIMURIUM, Strain/Indicator: TA98, Metabolic Activation: S-9) “inactive; negative”. Besides, the mutagenic call reads like this: (Test System: AMES SALMONELLA TYPHIMURIUM, Strain/Indicator: TA100, Metabolic Activation: NONE, Method: PREINCUBATION) “inactive; negative”; (Test System: AMES SALMONELLA TYPHIMURIUM, Strain/Indicator: TA100, Metabolic Activation: RAT, LIVER, S-9, PHENOBARBITAL AND 5,6-BENZOFLAVONE, Method: PREINCUBATION) “inactive; negative”; (Test System: AMES SALMONELLA TYPHIMURIUM, Strain/Indicator: TA100, Metabolic Activation: S-9) “inactive; negative”; (Test System: AMES SALMONELLA TYPHIMURIUM, Strain/Indicator: TA102, Metabolic Activation: NONE) “inactive; negative”; (Test System: AMES SALMONELLA TYPHIMURIUM, Strain/Indicator: TA102, Metabolic Activation: S-9) “inactive; negative”; (Test System: AMES SALMONELLA TYPHIMURIUM, Strain/Indicator: TA1535, Metabolic Activation: NONE, Method: PREINCUBATION) “inactive; negative”. Also, the mutagenic call is “inactive; negative” (Test System: AMES SALMONELLA TYPHIMURIUM, Strain/Indicator: TA1535, Metabolic Activation: RAT, LIVER, S-9, PHENOBARBITAL AND 5,6-BENZOFLAVONE, Method: PREINCUBATION); “inactive; negative” (Test System: AMES SALMONELLA TYPHIMURIUM, Strain/Indicator: TA1537, Metabolic Activation: NONE, Method: PREINCUBATION); “inactive; negative” (Test System: AMES SALMONELLA TYPHIMURIUM, Strain/Indicator: TA1537, Metabolic Activation: RAT, LIVER, S-9, PHENOBARBITAL AND 5,6-BENZOFLAVONE, Method: PREINCUBATION); “inactive; negative” (Test System: E. COLI, Strain/Indicator: WP2 UVRA, Metabolic Activation: NONE, Method: PREINCUBATION); “inactive; negative” (Test System: E. COLI, Strain/Indicator: WP2 UVRA, Metabolic Activation: RAT, LIVER, S-9, PHENOBARBITAL AND 5,6-BENZOFLAVONE, Method: PREINCUBATION); “inactive; negative” under setting [1]. In addition, the mutagenic call (Test System: MOUSE LYMPHOMA, Strain/Indicator: L5178Y (TK+/TK-), Metabolic Activation: RAT, LIVER, S-9, PHENOBARBITAL AND 5,6-BENZOFLAVONE, Method: SUSPENSION/PLATE) is “inactive; negative”.

As to `COCCOCCOP1(OCCOCCOC)=NP(OCCOCCOC)(OCCOCCOC)=NP(OCCOCCOC)(OCCOCCOC)=N1`, the mutagenic call under setting [2] was “inactive; negative”, the mutagenic call under setting [3] is “inactive; negative”, the mutagenic call under setting [4] was “inactive; negative” and the mutagenic call under setting [5] is “inactive; negative”.

For `[Cl][Hg].[Cl][Hg]`, for the setting “End Point: IN VIVO MICRONUCLEUS, Test System: BONE MARROW, Species: HAMSTER, Strain/Sex: SYRIAN/MALE, Route: INTRAPERITONEAL”, the mutagenic call was “inactive; negative”.

Take `[CH3][Sn]([CH3])([CH3])[CH3]`: the mutagenic call (Test System: AMES SALMONELLA TYPHIMURIUM, Strain/Indicator: TA98, Metabolic Activation: NONE, Method: SUSPENSION/PLATE) is “inactive; negative” and the mutagenic call (Test System: AMES SALMONELLA TYPHIMURIUM, Strain/Indicator: TA100, Metabolic Activation: NONE, Method: SUSPENSION/PLATE) is “inactive; negative”.

In the case of `CN(C)C=O`, the mutagenic call runs as follows: (Test System: AMES SALMONELLA TYPHIMURIUM, Strain/Indicator: TA97, Metabolic Activation: NONE, Method: STANDARD PLATE) “inactive; negative”; (Test System: AMES SALMONELLA TYPHIMURIUM, Strain/Indicator: TA97, Metabolic Activation: RAT, LIVER, S-9, AROCLOR 1254, Method: STANDARD PLATE) “inactive; negative”; under setting [2], “inactive; negative”; under setting [3], “inactive; negative”; under setting [4], “inactive; negative”; under setting [5], “inactive; negative”. Besides, the mutagenic call reads like this: (Test System: Ames Salmonella typhimurium, Strain/Indicator: TA98, Metabolic Activation: None, Method: Gas exposure method) “inactive; negative”; (Test System: Ames Salmonella typhimurium, Strain/Indicator: TA98, Metabolic Activation: Rat, Liver, S9, Sodium phenobarbital and 5,6-benzoflavone (10%), Method: Gas exposure method) “inactive; negative”; (Test System: Ames Salmonella typhimurium, Strain/Indicator: TA100, Metabolic Activation: None, Method: Gas exposure method) “inactive; negative”; (Test System: Ames Salmonella typhimurium, Strain/Indicator: TA100, Metabolic Activation: Rat, Liver, S9, Sodium phenobarbital and 5,6-benzoflavone (10%), Method: Gas exposure method) “inactive; negative”; (Test System: Ames Salmonella typhimurium, Strain/Indicator: TA1535, Metabolic Activation: None, Method: Gas exposure method) “inactive; negative”; (Test System: Ames Salmonella typhimurium, Strain/Indicator: TA1535, Metabolic Activation: Rat, Liver, S9, Sodium phenobarbital and 5,6-benzoflavone (10%), Method: Gas exposure method) “inactive; negative”. Besides, the mutagenic call reads like this: (Test System: Ames Salmonella typhimurium, Strain/Indicator: TA1537, Metabolic Activation: None, Method: Gas exposure method) “inactive; negative”; (Test System: Ames Salmonella typhimurium, Strain/Indicator: TA1537, Metabolic Activation: Rat, Liver, S9, Sodium phenobarbital and 5,6-benzoflavone (10%), Method: Gas exposure method) “inactive; negative”; (Test System: E. coli, Strain/Indicator: WP2uvrA/pKM101, Metabolic Activation: None, Method: Gas exposure method) “inactive; negative”; (Test System: E. coli, Strain/Indicator: WP2uvrA/pKM101, Metabolic Activation: Rat, Liver, S9, Sodium phenobarbital and 5,6-benzoflavone (10%), Method: Gas exposure method) “inactive; negative”; under setting [1], “inactive; negative”; (Test System: MOUSE LYMPHOMA, Strain/Indicator: L5178Y (TK+/TK-), Metabolic Activation: RAT, LIVER, S-9, AROCLOR 1254, Method: SUSPENSION/PLATE) “inactive; negative”. Also, where the note is “Test System: MOUSE LYMPHOMA, Strain/Indicator: L5178Y (TK+/TK-), Metabolic Activation: RAT, LIVER, S-9, Method: SUSPENSION/PLATE”, the mutagenic call is “inactive; negative”.

`CC(C)N(CC(O)COc1cccc2ccccc12)N=O` (configuration not stated): the mutagenic call is “active; positive” (Test System: UDS HUMAN HEPATOCYTES, Strain/Indicator: THY INCORP, Metabolic Activation: NONE, Method: AUTORADIOGRAPHY) and “active; positive” (Test System: UDS RAT HEPATOCYTES, Strain/Indicator: THY INCORP, Metabolic Activation: NONE, Method: AUTORADIOGRAPHY).

The record behind these values is PubChem BioAssay AID1259407 (Chemical Carcinogenesis Research Information System (CCRIS), 2018).
